Patent publication US7763615B2, “Ecteinascidin analogs for use as antitumour agents” (priority 2001, dated 2010)
Values after ≈ are worked out from the molar mass of the structure shown.

Assays:
[1] = tested on: H9c2 (2-1), normal rat cardiac muscle cells; settings: 24 h
(HEPG2) = settings: human, 24 h, 30 μM
CYP3A4 = CYP3A4 (Homo sapiens, UniProt P08684); experiment: in vitro; settings: CYP3A4 (% inhibition)
in vitro = settings: human, Caco-2
Description: The intestinal epithelium permeability is a critical characteristic that determines the rate and extent of human absorption and ultimately the bioavailability of a drug candidate. Caco-2 permeability assay allows a rapid assessment of membrane permeability and thus helps to rank-order compounds in terms of their absorption potential.
The Caco-2 cell line is a human colon adenocarcinoma cell line that differentiates in culture and resembles the epithelial lining of the human small intestine.
The apparent permeability coefficients (Papp) was determined in the apical-to-basolateral (A-to-B) direction across the cell monolayers (TC-7 sub-clone of the Caco-2) cultured on polycarbonate membrane filters. Compounds were tested at 50 μM with at a final DMSO concentration of 1%. Samples were analyzed by HPLC-MS or HPLC-MS/MS.
The test compound was added to the apical side and the Papp was determined based on the rate of appearance of the test compound in the basolateral side after 2 h-incubation. Two reference compounds, propranolol (highly permeable) and ranitidine (poorly permeable), are tested in each assay as controls.

MCF = experiment: cells; format: cell-based; settings: Homo sapiens
Procedure, shortened: (§1)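 Human tumour cells seeded at 5×10^3 per well in RPMI 1640 10% FBS, attached 18 h, then exposed 48 h to samples from 10 to 10^−8 μg/ml in DMSO/EtOH/PBS. Growth measured by SRB staining after TCA fixation, OD 490 nm, triplicate wells; GI, TGI and LC derived.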

DU145 = experiment: cells; format: cell-based; settings: Homo sapiens, DU-145, 48 h
Procedure, shortened: as §1

HT29 = experiment: cells; format: cell-based; settings: Homo sapiens, HT-29, 48 h
Procedure, shortened: as §1

MB231 = experiment: cells; format: cell-based; settings: Homo sapiens
Procedure, shortened: as §1

MEL-28 = experiment: cells; format: cell-based; settings: Homo sapiens, SK-MEL-28, 48 h
Procedure, shortened: as §1

A498 = experiment: cells; format: cell-based; settings: Homo sapiens
Procedure, shortened: as §1

SW-620 = experiment: cells; format: cell-based; settings: Homo sapiens
Procedure, shortened: as §1

A549 = experiment: cells; format: cell-based; settings: Homo sapiens, A549, 48 h
Procedure, shortened: as §1

[2] = tested on: FDC-P1, normal mouse myelogeous stem cells; settings: 24 h
Protocol: (§2) In order to assess the cytotoxicity of the drugs to normal cells, we used 96 well plates plated at a density of 5000 cells per well (except for the FDC-P1 which were plated at 12,000 cells per well) with normal cell lines (ATCC, Table 1) maintained as per the directions of the ATCC: AML-12, normal mouse liver cells; NRK-52E, normal rat kidney cells; L8, normal rat skeletal muscle cells; FDC-P1, normal mouse myelogeous stem cells; and H9c2 (2-1), normal rat cardiac muscle cells. The cells in each plate were permitted to settle overnight before adding the test drug.
(§3) To each well (100 μl medium) 10 μl of drug in media was added at varying concentrations (1×10-10-0.01 mg/ml final concentration) and further incubated overnight at 37° C. with 5% CO2. After 24 h the following assays were performed. All experiments were repeated at least 3 times and were assayed in duplicate.
(§4) MTS assay (CellTiter 96 aqueous) was performed according to the manufacturer's (Promega) directions (for all cell types). Cell viability (mitochondrial activity) is determined via enzymatic conversion of the formazan substrate.

physchem [3] = settings: pH 7.4, log D n-Octanol-Dulbecco's PBS pH 7.4
Protocol: The measurement of partition coefficient was evaluated based on a miniaturized shake-flask procedure. Buffer (Dulbecco's PBS, pH 7.40) was used as the aqueous phase. The tested compound was dissolved in DMSO, at the concentration of 100 μM. The final DMSO concentration (1%.) during the octanol-buffer partitioning are very low to avoid bias on the partitioning. The amount of compound in the buffer phase was determined by HPLC with photodiode array detection after an equilibration phase of 60 min. The amount of compound in the octanol phase is calculated by subtraction of the amount of compound in buffer from the total amount of compound, which is determined from a calibration sample.
Log D is calculated as the Log10 of the amount of compound in the octanol phase divided by the amount of compound in the buffer phase. The effective range of the log D microassay is approximately −0.5 to +4.5.

CYP2D6 = CYP2D6 (Homo sapiens, UniProt P10635); experiment: in vitro; settings: CYP2D6 (% inhibition)
[4] = tested on: L8, normal rat skeletal muscle cells; settings: 24 h
Protocol: as §2, §3, §4

physchem [5] = settings: pH 7.4, aqueous buffer, Solubility Dulbecco's PBS pH 7.4
[6] = tested on: AML-12, normal mouse liver cells; settings: 24 h
[7] = s9, 60 min, 1 μM
[8] = tested on: NRK-52E, normal rat kidney cells; settings: 24 h

Sequence of CYP3A4 (P08684 whole entry): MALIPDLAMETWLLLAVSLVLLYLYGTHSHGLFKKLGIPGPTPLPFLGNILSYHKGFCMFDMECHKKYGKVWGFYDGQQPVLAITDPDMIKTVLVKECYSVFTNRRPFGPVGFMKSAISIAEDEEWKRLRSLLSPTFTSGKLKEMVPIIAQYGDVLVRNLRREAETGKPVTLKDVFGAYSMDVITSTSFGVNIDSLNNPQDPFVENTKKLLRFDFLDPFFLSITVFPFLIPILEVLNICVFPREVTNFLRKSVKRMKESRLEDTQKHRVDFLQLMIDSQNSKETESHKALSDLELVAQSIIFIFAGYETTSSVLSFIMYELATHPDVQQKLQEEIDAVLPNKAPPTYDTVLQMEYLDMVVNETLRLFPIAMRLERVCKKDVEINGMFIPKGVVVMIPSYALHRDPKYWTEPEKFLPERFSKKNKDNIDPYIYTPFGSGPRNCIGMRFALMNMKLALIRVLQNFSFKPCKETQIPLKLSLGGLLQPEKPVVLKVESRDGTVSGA
Sequence of CYP2D6 (P10635 whole entry): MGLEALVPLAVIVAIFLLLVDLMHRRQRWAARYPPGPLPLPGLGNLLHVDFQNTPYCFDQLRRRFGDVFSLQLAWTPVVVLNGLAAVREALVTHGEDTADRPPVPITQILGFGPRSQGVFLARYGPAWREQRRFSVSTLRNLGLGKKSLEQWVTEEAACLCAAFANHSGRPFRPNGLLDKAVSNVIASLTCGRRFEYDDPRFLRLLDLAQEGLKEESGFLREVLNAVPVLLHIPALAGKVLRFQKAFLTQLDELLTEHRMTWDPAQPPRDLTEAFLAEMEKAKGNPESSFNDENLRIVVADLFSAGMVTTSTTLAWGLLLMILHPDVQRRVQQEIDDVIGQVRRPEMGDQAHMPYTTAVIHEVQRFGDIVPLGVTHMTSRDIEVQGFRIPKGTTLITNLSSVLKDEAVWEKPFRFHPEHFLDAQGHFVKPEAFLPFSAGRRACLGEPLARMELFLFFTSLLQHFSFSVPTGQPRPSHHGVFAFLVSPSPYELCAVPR

COc1ccc2c3c([nH]c2c1)[C@@]1(CS[C@@H]2c4c(OC(C)=O)c(C)c5c(c4[C@H](COCC1=O)N1C2[C@H]2c4c(cc(C)c(OC)c4O)C[C@@H]([C@@H]1O)N2C)OCO5)NCC3 (stereo partly drawn) [Compound 34]
Heart [1]: 4.96E−07
Cell Viability (% inhibition) ((HEPG2)): 45 % inhibition
inhibition at 30 min, 10 µM (CYP3A4): 80%
Papp A→B at 2 h, 50 μM (in vitro): 5 ×10⁻⁶ cm/s
CC50 (MCF; 48 h, read-out: LC50): 127 nM
GI50 (MCF; MCF, 48 hours exposure, SRB): 5.1 nM
IC (TGI) (MCF; MCF, 48 hours exposure, SRB, read-out: TGI): 25.5 nM
GI50 (DU145; DU145, 48 hours exposure, SRB): 2.55 nM
IC (TGI) (DU145; DU145, 48 hours exposure, SRB): 3.82 nM
CC50 (DU145; read-out: LC50, DU145, 48 hours exposure, SRB): 10.2 nM
GI50 (HT29; HT29, 48 hours exposure, SRB): 7.64 nM
IC (TGI) (HT29; HT29, 48 hours exposure, SRB): 2.54 nM
CC50 (HT29; read-out: LC50, HT29, 48 hours exposure, SRB): 11.5 nM
CC50 (MB231; 48 h, read-out: LC50): 127 nM
IC (TGI) (MB231; 48 h, read-out: TGI): 10.2 nM
GI50 (MB231; MB231, 48 hours exposure, SRB): 3.82 nM
GI50 (MEL-28; MEL-28, 48 hours exposure, SRB): 3.82 nM
IC (TGI) (MEL-28; MEL-28, 48 hours exposure, SRB): 12.7 nM
CC50 (MEL-28; read-out: LC50, MEL-28, 48 hours exposure, SRB): 63.7 nM
CC50 (A498; A498, 48 h, read-out: LC50): 63.7 nM
GI50 (A498; A498, 48 hours exposure, SRB): 3.82 nM
IC (TGI) (A498; A498, 48 hours exposure, SRB): 12.7 nM
GI50 (SW-620; SW-620, 48 h): 10.2 nM
CC50 (SW-620; SW-620, 48 h, read-out: LC50): 102 nM
IC (TGI) (SW-620; SW-620, 48 hours exposure, SRB): 38.2 nM
GI50 (A549; A549, 48 hours exposure, SRB, read-out: GI50): 5.1 nM
IC (TGI) (A549; A549, 48 hours exposure, SRB, read-out: TGI): 25.5 nM
CC50 (A549; read-out: LC50, A549, 48 hours exposure, SRB): 89.2 nM
Myelo [2]: 1.15E−05
logD at 60 min (physchem [3]): > 5
inhibition at 450 min, 10 µM (CYP2D6): 28%
Skeletal [4]: 1.48E−08
solubility (physchem [5]): 17.6 µM (≈ 14.1 µg/mL)
Liver [6]: 2.55E−06
Human Liver S9 Metabolic Stability (% remaining) [7]: 24 % remaining
Kidney [8]: 2.74E−07
